SMILES strings stand for the structures.

A word on the Ki: it is the equilibrium dissociation constant of an inhibitor or competing ligand from its target. Higher therefore signals a looser hold on the target.

The test deals with T1, 1-deoxy-D-xylulose 5-phosphate reductoisomerase (Escherichia coli (strain K12), UniProt P45568).
T1 sequence (P45568 whole entry): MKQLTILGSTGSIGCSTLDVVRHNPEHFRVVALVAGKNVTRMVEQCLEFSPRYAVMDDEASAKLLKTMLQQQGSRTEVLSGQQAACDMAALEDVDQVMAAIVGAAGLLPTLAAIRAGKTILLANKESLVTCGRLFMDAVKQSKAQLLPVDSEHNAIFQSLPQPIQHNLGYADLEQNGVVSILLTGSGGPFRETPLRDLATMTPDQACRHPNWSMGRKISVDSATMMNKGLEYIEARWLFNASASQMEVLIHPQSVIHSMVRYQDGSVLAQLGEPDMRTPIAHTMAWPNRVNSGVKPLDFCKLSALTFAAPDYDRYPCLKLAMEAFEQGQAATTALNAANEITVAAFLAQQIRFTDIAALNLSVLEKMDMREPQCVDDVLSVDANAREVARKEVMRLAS
As to the kind of experiment: Inhibition Assay. Particulars: pH 8; 37 °C. The method, then:
The assay was monitored spectrophotometrically through the consumption of beta-NADPH. The inhibitor assays contained inhibitor at concentrations of 0.1-15 mM cyclic analogues and 5-35 mM phosphonic acid derivates.
Regarding `NCCCP(=O)(O)O` [Phosphate analogue, 8], the Ki turned out to be 4 mM.
`CC(=O)NCCCP(=O)(O)O` [Phosphate analogue, 9] displayed a Ki of 6.5 mM.
With `O=C1N[C@H](COP(=O)(O)O)CO1` [Phosphate analogue, (S)-21], the inhibition constant Ki stood at 4.1 mM.
`O=C1OC[C@@H](COP(=O)(O)O)N1O` [Phosphate analogue, (s)-14] showed a Ki of 0.75 mM.

Values taken from BindingDB's records for doi:10.1002/cbic.200500061 (University of Bristol, 2005).
